Test results reported in patent publication US10954240B2, “Compounds inhibiting leucine-rich repeat kinase enzyme activity” (Merck Sharp & Dohme Corp., priority 2014, dated 2021).

Key:
[1] = Rat pharmacokinetics, oral AUC; type: in vivo; settings: single oral dose 10 mpk, plasma; for AUC: 10 mg/kg
Text: Representative Example of a Pharmacokinetic Measurement
The pharmacokinetics of a compound of the invention (amorphous free form) can be studied following single intravenous and/or oral administration to mouse, rat, dog and/or monkey. In the present study, the pharmacokinetics of selected compounds of the invention (amorphous free form) were studied following single intravenous and/or oral administration to rat. The IV solution formulations contained 30% captisol/70% water or 1/1 DMSO/PEG-400. The PO solution formulations contained 10% tween/90% PEG-400 or 40% PEG-400/25% of a aqueous HPBCD solution (20%)/35% water. All IV formulations were given as solutions and all PO doses were given as well-behaved suspensions or solutions. Animals were fasted prior to oral dosing in single-dose studies. Oral bioavailability was estimated using non-cross-over study designs (n=2 or 3). Plasma samples were assayed using protein precipitation with acetonitrile/methanol (90/10, v/v) followed by HPLC/MS/MS analysis employing positive-ion Turbo IonSpray ionization. Plasma concentration-time data were analyzed by non-compartmental methods and expressed as AUC (area under the curve) values. Holding dose constant, higher oral AUC values represent greater oral plasma exposure.
The tables above provide oral AUC values for example 1, 8, 12, 17, and 20, in which the compound was dosed in rats at 10 mpk via a method similar to that described above.

[2] = target: LRRK2 (G2019S mutation, GST-LRRK2 (amino acids 970-2527)) (Homo sapiens (Human), UniProt Q5S007, G2019S); test: LRRK2 Km ATP LanthaScreen Assay; type: biochemical; settings: mean IC50 of several test results
LRRK2 (G2019S mutation, GST-LRRK2 (amino acids 970-2527)), sequence (Q5S007 970-2527 G2019S): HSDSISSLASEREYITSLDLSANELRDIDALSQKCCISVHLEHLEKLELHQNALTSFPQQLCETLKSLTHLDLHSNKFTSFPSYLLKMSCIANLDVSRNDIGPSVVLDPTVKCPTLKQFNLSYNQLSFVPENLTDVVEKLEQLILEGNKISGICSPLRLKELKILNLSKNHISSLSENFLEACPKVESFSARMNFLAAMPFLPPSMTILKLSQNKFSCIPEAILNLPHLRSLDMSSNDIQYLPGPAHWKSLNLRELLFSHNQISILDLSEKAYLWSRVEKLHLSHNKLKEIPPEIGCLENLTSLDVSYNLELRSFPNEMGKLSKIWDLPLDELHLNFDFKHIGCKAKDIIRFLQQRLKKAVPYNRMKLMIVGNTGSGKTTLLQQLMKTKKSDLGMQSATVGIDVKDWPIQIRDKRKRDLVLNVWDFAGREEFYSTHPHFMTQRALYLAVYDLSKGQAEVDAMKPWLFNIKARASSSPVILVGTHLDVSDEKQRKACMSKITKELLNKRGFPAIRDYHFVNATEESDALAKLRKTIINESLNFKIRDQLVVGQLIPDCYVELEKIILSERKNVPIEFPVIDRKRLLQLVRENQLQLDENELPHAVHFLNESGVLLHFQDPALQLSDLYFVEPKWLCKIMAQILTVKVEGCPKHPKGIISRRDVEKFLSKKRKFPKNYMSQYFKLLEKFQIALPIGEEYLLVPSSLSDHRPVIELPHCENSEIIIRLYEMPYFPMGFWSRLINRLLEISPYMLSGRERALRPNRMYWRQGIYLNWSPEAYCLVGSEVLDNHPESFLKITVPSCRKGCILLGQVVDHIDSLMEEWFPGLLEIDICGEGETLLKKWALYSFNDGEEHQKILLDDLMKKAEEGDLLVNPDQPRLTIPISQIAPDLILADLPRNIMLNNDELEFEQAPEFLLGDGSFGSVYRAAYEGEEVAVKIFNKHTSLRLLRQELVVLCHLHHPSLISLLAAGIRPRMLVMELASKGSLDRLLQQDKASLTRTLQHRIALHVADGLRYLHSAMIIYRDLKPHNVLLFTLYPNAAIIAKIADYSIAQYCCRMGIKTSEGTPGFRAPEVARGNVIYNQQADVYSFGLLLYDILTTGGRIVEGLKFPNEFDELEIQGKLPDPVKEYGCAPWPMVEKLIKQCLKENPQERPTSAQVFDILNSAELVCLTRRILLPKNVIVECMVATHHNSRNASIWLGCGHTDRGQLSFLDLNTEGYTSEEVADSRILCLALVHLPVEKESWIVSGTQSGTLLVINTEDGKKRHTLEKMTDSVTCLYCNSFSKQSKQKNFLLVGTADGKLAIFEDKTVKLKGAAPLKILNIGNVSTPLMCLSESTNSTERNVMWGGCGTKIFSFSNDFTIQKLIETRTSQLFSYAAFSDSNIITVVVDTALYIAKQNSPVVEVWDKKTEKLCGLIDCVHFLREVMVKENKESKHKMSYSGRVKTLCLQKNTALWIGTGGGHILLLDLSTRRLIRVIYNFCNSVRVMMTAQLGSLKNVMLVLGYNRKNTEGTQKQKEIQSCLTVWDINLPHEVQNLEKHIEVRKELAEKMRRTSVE
Text: Unless otherwise noted, all LRRK2 IC50 data presented in tables refers to the LRRK2 Km ATP LanthaScreen™ Assay that is described in the Biological Assay section.
The data presented for the Km ATP LanthaScreen™ Assay represents mean IC50 values based on several test results and may have reasonable deviations depending on the specific conditions and reagents used. Reagents for the LRRK2 Km ATP LanthaScreen™ Assay were purchased from Life Technologies Corporation.
LRRK2 Km ATP LanthaScreen™ Assay
a) 400 nl of a 1:2.15 serial dilution of test compound (98 μM top assay concentration) is spotted via Labcyte Echo to certain wells in a 384 well black, untreated plate. Control wells contain 400 nl of either DMSO or 400 nl of a known inhibitor in DMSO.
c) A 30 minute room temperature incubation is followed by addition of 10 μl of 800 nM fluorescein labeled LRRKtide peptide substrate and 186 μM ATP solution in 1× assay buffer to all wells.
d) After a 60 minute room temperature incubation, 20 μl of TR-FRET Dilution Buffer (Invitrogen PV3756B) containing 4 nM Tb-labeled anti-phospho LRRKtide antibody and 20 mM EDTA is added to all wells.
e) Plates are incubated at room temperature for 1 hour and read on an Envision™ multi-mode plate reader with LanthaScreen™ settings. Results are analysed using Assay Data Analyzer.

Compound | AUC [1] [µM·h] | Rat AUC 10 mpk PO [1] [µM·h] | IC50 [2] [nM]
Cn1cc(-c2ccc3cnn(-c4ccnc(N5CCOCC5)c4)c3c2)cn1 [Example 1, 4-(4-(6-(1-methyl-1H-pyrazol-4-yl)-1H-indazol-1-yl)pyridin-2-yl)morpholine] | 2.1 | 2.1 ± 0.09 | 
Cn1cc(-c2ccc3cnn(-c4ccnc(N5CCN(S(C)(=O)=O)CC5)c4)c3c2)cn1 [Example 8, 6-(1-methyl-1H-pyrazol-4-yl)-1-(2-(4-(methylsulfonyl)piperazin-1-yl)pyridin-4-yl)-1H-indazole] | 41 | 41 ± 26 | 45
Cn1cc(-c2ccc3cnn(-c4ccnc(N5CC[C@@H](F)C5)c4)c3c2)cn1 [Example 12, (R)-1-(2-(3-fluoropyrrolidin-1-yl)pyridin-4-yl)-6-(1-methyl-1H-pyrazol-4-yl)-1H-indazole] | 0.82 |  | 89
COc1ccncc1-c1ccc2cnn(-c3ccnc(N4CCOCC4)c3)c2c1 [Example 17, 4-(4-(6-(4-methoxypyridin-3-yl)-1H-indazol-1-yl)pyridin-2-yl)morpholine] | 10 | 10 ± 2.5 | 43
CN(C)C(=O)CN1CCN(c2cc(-n3ncc4ccc(-c5cnn(C)c5)cc43)ccn2)CC1 [Example 20, N,N-dimethyl-2-(4-(4-(6-(1-methyl-1H-pyrazol-4-yl)-1H-indazol-1-yl)pyridin-2-yl)piperazin-1-yl)acetamide] | 1 | 1.0 ± 0.19 | 34
CCc1nnc2n1CCN(c1cc(-n3ncc4ccc(-c5cnn(C)c5)cc43)ccn1)C2 [Example 51, 3-ethyl-7-(4-(6-(1-methyl-1H-pyrazol-4-yl)-1H-indazol-1-yl)pyridin-2-yl)-5,6,7,8-tetrahydro-[1,2,4]triazolo[4,3-a]pyrazine] |  |  | 217
Cn1cc(-c2ccc3cnn(-c4ccnc(N5CCn6ccnc6C5)c4)c3c2)cn1 [Example 52, 7-(4-(6-(1-methyl-1H-pyrazol-4-yl)-1H-indazol-1-yl)pyridin-2-yl)-5,6,7,8-tetrahydroimidazo[1,2-a]pyrazine] |  |  | 189
Cn1cc(-c2ccc3cnn(-c4ccnc(N5CCC(C)(O)C5)c4)c3c2)cn1 (stereo not drawn) [Example 53, 3-methyl-1-(4-(6-(1-methyl-1H-pyrazol-4-yl)-1H-indazol-1-yl)pyridin-2-yl)pyrrolidin-3-ol] |  |  | 131
Cn1cc(-c2ccc3cnn(-c4ccnc(N5CCN(c6ccncn6)CC5)c4)c3c2)cn1 [Example 54, 6-(1-methyl-1H-pyrazol-4-yl)-1-(2-(4-(pyrimidin-4-yl)piperazin-1-yl)pyridin-4-yl)-1H-indazole] |  |  | 97
Cn1cc(-c2ccc3cnn(-c4ccnc(N5CCN(CCO)CC5)c4)c3c2)cn1 [Example 55, 2-(4-(4-(6-(1-methyl-1H-pyrazol-4-yl)-1H-indazol-1-yl)pyridin-2-yl)piperazin-1-yl)ethanol] |  |  | 70
CS(=O)(=O)N1CCN(c2cc(-n3ncc4ccc(-c5cccnc5)cc43)ncn2)CC1 [Example 62, 1-{6-[4-(methylsulfonyl)piperazin-1-yl]pyrimidin-4-yl}-6-pyridin-3-yl-1H-indazole] |  |  | 486
Cn1cc(-c2ccc3cnn(-c4cc(N5CCN(S(C)(=O)=O)CC5)ncn4)c3c2)cn1 [Example 63, 6-(1-methyl-1H-pyrazol-4-yl)-1-{6-[4-(methylsulfonyl)piperazin-1-yl]pyrimidin-4-yl}-1H-indazole] |  |  | 317
CS(=O)(=O)N1CCN(c2cc(-n3ncc4ccc(-c5ccn[nH]5)cc43)ncn2)CC1 [Example 64, 1-{6-[4-(methylsulfonyl)piperazin-1-yl]pyrimidin-4-yl}-6-(1H-pyrazol-5-yl)-1H-indazole] |  |  | 18
CS(=O)(=O)N1CCN(c2cc(-n3ncc4ccc(-c5cn[nH]c5)cc43)ncn2)CC1 [Example 66, 1-{6-[4-(methylsulfonyl)piperazin-1-yl]pyrimidin-4-yl}-6-(1H-pyrazol-4-yl)-1H-indazole] |  |  | 68
c1cncc(-c2ccc3cnn(-c4cc(N5CCOCC5)ncn4)c3c2)c1 [Example 67, 1-(6-morpholin-4-ylpyrimidin-4-yl)-6-pyridin-3-yl-1H-indazole] |  |  | 130
Cn1cc(-c2ccc3cnn(-c4cc(N5CCOCC5)ncn4)c3c2)cn1 [Example 68, 6-(1-methyl-1H-pyrazol-4-yl)-1-(6-morpholin-4-ylpyrimidin-4-yl)-1H-indazole] |  |  | 79
c1cc(-c2ccc3cnn(-c4cc(N5CCOCC5)ncn4)c3c2)[nH]n1 [Example 69, 1-(6-morpholin-4-ylpyrimidin-4-yl)-6-(1H-pyrazol-5-yl)-1H-indazole] |  |  | 10.5
c1nc(N2CCOCC2)cc(-n2ncc3ccc(-c4cn[nH]c4)cc32)n1 [Example 70, 1-(6-morpholin-4-ylpyrimidin-4-yl)-6-(1H-pyrazo-4-yl)-1H-indazole] |  |  | 77
c1nc(N2CCOCC2)cc(-n2ncc3ccc(C4CC4)cc32)n1 [Example 71, 6-cyclopropyl-1-(6-morpholin-4-ylpyrimidin-4-yl)-1H-indazole] |  |  | 231
